# Key:
# [1] = Light fastness: change in chromaticity ΔEab* of the coated glass substrate after xenon lamp irradiation; assay type: physicochemical; settings: xenon lamp 50,000 Lux for 10 hours
# Method: The glass substrate coated with the dye resist solution was irradiated with 50,000 Lux light from a xenon lamp for 10 hours (corresponding to 500,000 Lux·h) and then, a change in chromaticity, namely ΔEab* value, before and after the irradiation was measured. The obtained ΔEab* value was adopted as an index showing the degree of […] and evaluated based on the following criteria. The smaller the ΔEab* value is, the higher the […] is.
# • A: ΔEab* was 3 or less. • B: ΔEab* exceeded 3 and was less than 10. • C: ΔEab* was 10 or more. —Pattern Shape—
# A cyan pattern image was obtained by carrying out coating, prebaking, irradiation, developing, rinsing and drying in the same manner as in Example 1 and then heated at 180° C. for 5 minutes. Also, the heat resistance, light fastness and pattern shape were evaluated in the same manner as in Example 1 and also the solubility of the dye (exemplified compound (3)) was evaluated visually according to the same criteria as in Example 1 from the degree of solubility when the dye was dissolved in the above “1) Preparation of a dye resist solution (positive type dye-containing curable composition)”.
# [2] = Heat resistance: change in chromaticity ΔEab* of the coated glass substrate after hot plate heating; assay type: physicochemical; settings: 200° C. for one hour
# Method: The glass substrate coated with the dye resist solution was placed on a hot plate such that its surface was in contact with the hot plate and heated at 200° C. for one hour to measure a change in chromaticity, namely ΔEab* value, before and after the substrate was placed, by using a chromaticity meter (trade name: MCPD-1000, manufactured by Otsuka Electronics Co., Ltd.). The obtained ΔEab* value was adopted as an index showing the degree of […] and evaluated based on the following criteria. The smaller the ΔEab* value is, the higher the heat resistance is.
# • A: ΔEab* was 5 or less. • B: ΔEab* exceeded 5 and was less than 10. • C: ΔEab* was 10 or more. —Light Fastness—
# [3] = positive type dye resist film on glass
# [4] = negative type dye resist film on glass
compound,measurement,setting,value
Cc1cc(C)n(-c2ccc3c(c2)-c2nc-3nc3[n-]c(nc4nc(nc5[n-]c(n2)c2ccc(-n6nc(C)cc6C)cc52)-c2cc(-n5nc(C)cc5C)ccc2-4)c2ccc(-n4nc(C)cc4C)cc32)n1.[Ni+2] [Exemplified compound (16)],Light fastness,[1]; [3],A (ΔEab* was 3 or less.)
same,Heat resistance,[2]; [3],A (ΔEab* was 5 or less.)
"Tetra-α-(3,5-dimethylpyrazolyl)zinc phthalocyanine [Exemplified compound (3)]",Light fastness,[1]; [4],A (ΔEab* was 3 or less.)
same,Light fastness,[1]; [3],A (ΔEab* was 3 or less.)
same,Heat resistance,[2]; [4],A (ΔEab* was 5 or less.)
same,Heat resistance,[2]; [3],A (ΔEab* was 5 or less.)
"Tetra-β-(3,5-dimethylpyrazolyl)zinc phthalocyanine [Exemplified compound (4)]",Light fastness,[1]; [4],A (ΔEab* was 3 or less.)
same,Light fastness,[1]; [3],A (ΔEab* was 3 or less.)
same,Heat resistance,[2]; [4],A (ΔEab* was 5 or less.)
same,Heat resistance,[2]; [3],A (ΔEab* was 5 or less.)

# Source: patent US20050208394A1, “Dye-containing curable composition, color filter and method of producing the color filter” (FUJI PHOTO FILM CO., LTD., priority 2004, published 2005)
